Among the data in PubChem BioAssay AID330 (DTP/NCI, 2004) are T/C values, retold here.

The subject of the experiment is P388 leukemia ip, CD2F1 mice, survival T/C. Nature of the experiment: NCI In Vivo Anticancer Drug Screen. Data for tumor model P388 Leukemia (intraperitoneal) in CD2F1 (CDF1) mice. The conditions noted are these: endpoint: median survival time, higher = longer survival. In a few lines:
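Mice carrying the transplanted tumor received test compound or vehicle. Survival was recorded in each group, and the value is the treated-group measurement divided by that of the vehicle-treated control group.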

The mark [1] stands for this setting: dose: 7.5 mg/kg/injection, schedule: Q01DX005 (ip), vehicle: Klucel (hydroxypropylcellulose) (HPC).
[2] abbreviates: dose: 15.0 mg/kg/injection, schedule: Q01DX005 (ip), vehicle: Klucel (hydroxypropylcellulose) (HPC).
Where [3] appears, read: dose: 30.0 mg/kg/injection, schedule: Q01DX005 (ip), vehicle: Klucel (hydroxypropylcellulose) (HPC).
The mark [4] stands for this setting: dose: 120.0 mg/kg/injection, schedule: Q01DX005 (ip), vehicle: Klucel (hydroxypropylcellulose) (HPC).
Setting [5] is: dose: 240.0 mg/kg/injection, schedule: Q01DX005 (ip), vehicle: Klucel (hydroxypropylcellulose) (HPC).
[6] abbreviates: dose: 50.0 mg/kg/injection, schedule: Q01DX009 (ip), vehicle: saline with Tween-80.
Setting [7] is: dose: 60.0 mg/kg/injection, schedule: Q01DX005 (ip), vehicle: saline with Tween-80.
Where [8] appears, read: dose: 120.0 mg/kg/injection, schedule: Q01DX005 (ip), vehicle: saline with Tween-80.
The mark [9] stands for this setting: dose: 240.0 mg/kg/injection, schedule: Q01DX005 (ip), vehicle: saline with Tween-80.
Where [10] appears, read: dose: 60.0 mg/kg/injection, schedule: Q01DX005 (ip), vehicle: Klucel (hydroxypropylcellulose) (HPC).
Where [11] appears, read: dose: 50.0 mg/kg/injection, schedule: Q01DX005 (ip), vehicle: saline with Tween-80.
The mark [12] stands for this setting: dose: 100.0 mg/kg/injection, schedule: Q01DX005 (ip), vehicle: saline with Tween-80.
Setting [13] is: dose: 200.0 mg/kg/injection, schedule: Q01DX005 (ip), vehicle: saline with Tween-80.
Where [14] appears, read: dose: 6.25 mg/kg/injection, schedule: Q01DX009 (ip), vehicle: saline.
Where [15] appears, read: dose: 12.5 mg/kg/injection, schedule: Q01DX009 (ip), vehicle: saline.
[16] abbreviates: dose: 50.0 mg/kg/injection, schedule: Q04DX003 (ip), vehicle: Klucel (hydroxypropylcellulose) (HPC).
The mark [17] stands for this setting: dose: 100.0 mg/kg/injection, schedule: Q04DX003 (ip), vehicle: Klucel (hydroxypropylcellulose) (HPC).

Structures are written as SMILES. Several values for one entry are separate records, joined by “and”; a condition that tells them apart may be missing. Equal values may be shown once. Inconclusive results and toxic doses are left out.

Take `COc1ccc(-n2c(SCC(=O)NC(=O)Nc3ccccc3)nc3c(Br)cc(Br)cc3c2=O)cc1`: the T/C under setting [1] is 97 % of control; the T/C under setting [2] was 92 % of control; the T/C under setting [3] was 86 % of control and 94 % of control; the T/C under setting [4] is 90 % of control; the T/C under setting [5] was 101 % of control.

On to `Nc1cnns1`, for which the T/C was 100 % of control (dose: 11.25 mg/kg/injection, schedule: Q01DX009 (ip), vehicle: water); 102 % of control (dose: 22.5 mg/kg/injection, schedule: Q01DX009 (ip), vehicle: water); 105 % of control (dose: 45.0 mg/kg/injection, schedule: Q01DX009 (ip), vehicle: water); 119 % of control (dose: 90.0 mg/kg/injection, schedule: Q01DX009 (ip), vehicle: water); 105 % of control (dose: 180.0 mg/kg/injection, schedule: Q01DX009 (ip), vehicle: water).

Consider `C[CH2][Pb]([CH2]C)([CH2]C)[n]1cnc2ccccc21`, for which the T/C was 99 % of control (dose: 0.75 mg/kg/injection, schedule: Q01DX009 (ip), vehicle: Klucel (hydroxypropylcellulose) (HPC)); 118 % of control (dose: 1.5 mg/kg/injection, schedule: Q01DX009 (ip), vehicle: Klucel (hydroxypropylcellulose) (HPC)); 118 % of control (dose: 3.0 mg/kg/injection, schedule: Q01DX009 (ip), vehicle: Klucel (hydroxypropylcellulose) (HPC)); 96 % of control (dose: 3.12 mg/kg/injection, schedule: Q04DX003 (ip), vehicle: Klucel (hydroxypropylcellulose) (HPC)); 114 % of control (dose: 6.25 mg/kg/injection, schedule: Q04DX003 (ip), vehicle: Klucel (hydroxypropylcellulose) (HPC)); 92 % of control (dose: 12.5 mg/kg/injection, schedule: Q04DX003 (ip), vehicle: Klucel (hydroxypropylcellulose) (HPC)).

As for `O=C(CCCCCCCCc1ccc(O)cc1)c1c(O)cccc1O`, the T/C (dose: 6.5 mg/kg/injection, schedule: Q01DX009 (ip), vehicle: Klucel (hydroxypropylcellulose) (HPC)) is 101 % of control; the T/C (dose: 13.0 mg/kg/injection, schedule: Q01DX009 (ip), vehicle: Klucel (hydroxypropylcellulose) (HPC)) is 108 % of control; the T/C (dose: 26.0 mg/kg/injection, schedule: Q01DX009 (ip), vehicle: Klucel (hydroxypropylcellulose) (HPC)) was 95 % of control; the T/C (dose: 52.0 mg/kg/injection, schedule: Q01DX009 (ip), vehicle: Klucel (hydroxypropylcellulose) (HPC)) is 105 % of control.

`C=C1CCC2C1C1C(C(C)C)CCC21C` (stereo not given): the T/C is 92 % of control (dose: 12.5 mg/kg/injection, schedule: Q01DX009 (ip), vehicle: saline with Tween-80); 96 % of control (dose: 25.0 mg/kg/injection, schedule: Q01DX009 (ip), vehicle: saline with Tween-80); 93 % of control under setting [6].

On to `Nc1cc(Cl)ccc1C(=O)c1ccccc1Cl`, for which the T/C by setting is: under setting [7], 102 % of control; under setting [8], 100 % of control; under setting [9], 93 % of control.

On to `CCOC(=O)NN(C(=O)OCC)C(C(C)=O)C(C)=O`, for which the T/C under setting [10] is 104 % of control, the T/C under setting [4] was 101 % of control and the T/C under setting [5] was 98 % of control.

Consider `CCCOP(=O)(CCl)OCCC`, for which the T/C runs as follows: (dose: 100.0 mg/kg/injection, schedule: Q01DX009 (ip), vehicle: saline) 90 % of control; (dose: 200.0 mg/kg/injection, schedule: Q01DX009 (ip), vehicle: saline) 95 % of control; (dose: 400.0 mg/kg/injection, schedule: Q01DX009 (ip), vehicle: saline) 109 % of control.

Take `N#CC(Nc1ccccc1)c1ccc(Cl)cc1` (stereo not given): the T/C is 94 % of control under setting [7], 94 % of control under setting [8] and 104 % of control under setting [9].

`Cc1cc2c3c(cccc3c1)C(=O)c1ccccc1-2`: the T/C by setting is: under setting [11], 102 % of control; under setting [12], 102 % of control; under setting [13], 93 % of control.

In the case of `CC[N](CC)[Ge]([CH2]C)[CH2]C.CC[N](CC)[Ge]([CH2]C)[CH2]C`, the T/C reads like this: under setting [14], 106 % of control; under setting [15], 109 % of control; (dose: 50.0 mg/kg/injection, schedule: Q04DX003 (ip), vehicle: saline) 116 % of control; (dose: 100.0 mg/kg/injection, schedule: Q04DX003 (ip), vehicle: saline) 114 % of control.

As for `O=C(NCCCCOc1ccccc1[N+](=O)[O-])OCc1ccccc1`, the T/C was 101 % of control under setting [11], 97 % of control under setting [12] and 101 % of control under setting [13].

As for `O=S(=O)(Nc1ccccc1Cl)c1ccc(F)cc1`, the T/C runs as follows: under setting [7], 96 % of control; under setting [8], 104 % of control; under setting [9], 100 % of control.

Consider `CNc1cc(C)c2ccc(N(C)C)cc2n1`, for which the T/C is, setting by setting: under setting [1], 98 % of control; under setting [2], 102 % of control; under setting [3], 101 % of control; under setting [10], 93 % of control.

For `COC(=O)/C=C(\C(=O)OC)C(C(C)=O)C(C)=NCCN=C(C)C(C(C)=O)/C(=C/C(=O)OC)C(=O)OC.[Cu]` (stereo not given), the T/C by setting is: (dose: 25.0 mg/kg/injection, schedule: Q04DX003 (ip), vehicle: Klucel (hydroxypropylcellulose) (HPC)) 98 % of control; under setting [16], 103 % of control; under setting [17], 107 % of control and 117 % of control.

Regarding `O=C(O)CC1C(=O)OC2C3COC(=O)c4cc(O)c(O)c(O)c4-c4c(cc(O)c(O)c4O)C(=O)OC2C(OC(=O)c2cc(O)c(O)c4c2C1C(O)C(=O)O4)C(OC(=O)c1cc(O)c(O)c(O)c1)O3` (stereo not given), the T/C is, setting by setting: (dose: 0.78 mg/kg/injection, schedule: Q01DX009 (ip), vehicle: saline) 99 % of control; (dose: 1.56 mg/kg/injection, schedule: Q01DX009 (ip), vehicle: saline) 102 % of control; (dose: 3.12 mg/kg/injection, schedule: Q01DX009 (ip), vehicle: saline) 98 % of control; under setting [14], 100 % of control and 121 % of control; under setting [15], 111 % of control and 93 % of control; (dose: 25.0 mg/kg/injection, schedule: Q01DX009 (ip), vehicle: saline) 107 % of control and 97 % of control. The T/C (dose: 50.0 mg/kg/injection, schedule: Q01DX009 (ip), vehicle: saline) is 116 % of control and 97 % of control.

On to `COc1ccc(S(=O)(=O)N/N=C/c2cc(I)cc([N+](=O)[O-])c2O)cc1`, for which the T/C is, setting by setting: under setting [11], 102 % of control; under setting [12], 100 % of control; under setting [13], 104 % of control.

Turning to `Cc1ccc(S(=O)(=O)OCC(C)(C)C)cc1`, the T/C runs as follows: under setting [16], 100 % of control; under setting [17], 100 % of control; (dose: 200.0 mg/kg/injection, schedule: Q04DX003 (ip), vehicle: Klucel (hydroxypropylcellulose) (HPC)) 100 % of control; (dose: 400.0 mg/kg/injection, schedule: Q04DX003 (ip), vehicle: Klucel (hydroxypropylcellulose) (HPC)) 96 % of control.

As for `CCC(=O)N(C)C(C)C(=O)OC1CC(=O)N(C)c2cc(cc(OC)c2Cl)CC(CBr)=C/C=C/C(OC)C2(O)CC(OC(=O)N2)C(C)C2OC12C` (stereo not given), the T/C reads like this: (dose: 32.0 micrograms/kg/injection, schedule: Q01DX009 (ip), vehicle: saline + alcohol) 152 % of control; (dose: 64.0 micrograms/kg/injection, schedule: Q01DX009 (ip), vehicle: saline + alcohol) 150 % of control.

`COc1ccc(Cc2c(O)ccc3ccccc23)cc1`: the T/C is 104 % of control under setting [11], 104 % of control under setting [12] and 111 % of control under setting [13].

As to `Cc1ccc(C(O)(c2ccc(C)cc2)C2(O)CCN(C)CC2)cc1`, the T/C is 107 % of control (dose: 50.0 mg/kg/injection, schedule: Q01DX005 (ip), vehicle: Klucel (hydroxypropylcellulose) (HPC)); 97 % of control (dose: 100.0 mg/kg/injection, schedule: Q01DX005 (ip), vehicle: Klucel (hydroxypropylcellulose) (HPC)); 92 % of control (dose: 200.0 mg/kg/injection, schedule: Q01DX005 (ip), vehicle: Klucel (hydroxypropylcellulose) (HPC)).

`CCCCCCOC(=O)c1ccc(OC)cc1`: the T/C runs as follows: under setting [6], 104 % of control; (dose: 100.0 mg/kg/injection, schedule: Q01DX009 (ip), vehicle: saline with Tween-80) 106 % of control; (dose: 200.0 mg/kg/injection, schedule: Q01DX009 (ip), vehicle: saline with Tween-80) 108 % of control.
